Assay results taken from patent US10532068B2, “Dual molecular delivery of oligonucleotides and peptide containing conjugates” (Merck Sharp & Dohme Corp., priority 2013, dated 2020).
Where no end group is shown, it is not given here. [ ]: non-standard residue; d: D form. S‑S‑TGN = not defined here; TGN = not defined here

Test system: CTNNB1
Experiment: In vivo evaluation in mice: liver mRNA knockdown measurement (TaqMan qPCR)
Parameters: species or system CD-1 mice
Experimental: Female CD-1 mice (Charles River) were injected in accordance with either a sequential dosing paradigm or a co-dosing paradigm. In the sequential dosing paradigm, the targeted siRNA (SCE) is dosed at t=0 and the targeted peptide is separately dosed up to 2 hr before the SCE (−2 hr) or up to 24 hr after the SCE (+24 hr). In the co-dosing paradigm, the SCE and peptides are co-formulated and dosed together in the same formulation as a single injection at t=0. The mice were dosed either by intravenous (i.v.) or subcutaneous (s.c.) injection of SCE and peptide. For the i.v. doses, the compounds were injected into the tail vein of the mice. For the s.c. doses, the compounds were injected in the subcutaneous space on the back of the mouse between the shoulder blades. At the indicated harvest times (measured from t=0 when the siRNA was dosed, regardless of when the peptide was dosed), the animals were sacrificed and 3 mm liver punches were collected, preserved in RNAlater (Ambion), and stored at 4° C. Separate 5 mm liver punches were collected, placed in 96-well plates, frozen on dry ice, and stored at −80° C. until use.
The 3 mm liver punches were removed from RNAlater and homogenized in Trizol (Invitrogen) using a bead mill tissue lyser (Qiagen); disruption was performed for two 5-minute cycles at 30 Hz. RNA extraction was performed using 1-bromo-2-chloropropane (Acros Organics) and total RNA was isolated from the aqueous phase using the MagMax RNA isolation method (Ambion). […] TaqMan qPCR analysis was performed with an ABI 7900 Real-Time PCR System using TaqMan Fast Advanced Master Mix (Applied Biosystems). All TaqMan probes and primers for CTNNB1 and PPIB (housekeeping gene) were purchased from Applied Biosystems as pre-validated gene expression assays. Results are calculated by the comparative Ct method, where the difference between the CTNNB1 Ct value and the PPIB Ct value (ΔCt) is calculated and then further normalized relative to the PBS control by taking a second difference (ΔΔCt), as described previously (1).

[1] = Table 6, mice, sequential, peptide IV 15 min after siRNA IV, TGN-L-siRNA-III 0.25 mg/kg, peptide 2 mg/kg
[2] = Table 6, mice, sequential, peptide IV 15 min after siRNA IV, TGN-L-siRNA-III 0.25 mg/kg, peptide 10 mg/kg
[3] = Table 6, mice, sequential, peptide IV 15 min after siRNA IV, TGN-L-siRNA-III 0.5 mg/kg, peptide 5 mg/kg
[4] = Table 6, mice, sequential, peptide IV 15 min after siRNA IV, TGN-L-siRNA-III 0.25 mg/kg, peptide 5 mg/kg

Substance | In vivo mRNA knockdown (%) [2] [%] | other results
TGN-CDM-SEQ ID NO: 1801 (D): TGN-CDM peptide, peptide glfgeieelieeglenlidwgng; C8 made from same all-D sequence (SEQ ID NO: 1074) (G[dL][dF]G[dE][dI][dE][dE][dL][dI][dE][dE]G[dL][dE][dN][dL][dI][dD][dW]G[dN]G; also: TGN-CDM conjugate; listed as Homo sapiens) | – | In vivo mRNA knockdown (%) (Table 8 (disulfide vs. ECL vs. CDM linkage), TGN-L-siRNA-II 0.25 mg/kg, targeted peptide 1 mg/kg): 23.0%; In vivo mRNA knockdown (%) (Table 8 (disulfide vs. ECL vs. CDM linkage), TGN-L-siRNA-II 0.25 mg/kg, targeted peptide 3 mg/kg): 24.9%
TGN-S-S-SEQ ID NO: 935 (L) (C(TGN)GFFGEIAELIWEGLKNLIDWWNG; reading uncertain; also: TGN attached via disulfide (S-S); listed as Homo sapiens) | 23 | In vivo mRNA knockdown (%) [1]: 17%
TGN-S-S-SEQ ID NO: 1248 (L) (C(TGN)FLEELWELLEHLL; reading uncertain; listed as Homo sapiens) | – | In vivo mRNA knockdown (%) [3]: 24%
TGN-S-S-SEQ ID NO: 1403 (L) (C(TGN)GLLEEIEELLEEGLENLIDWWNS; reading uncertain; listed as Homo sapiens) | 24 | In vivo mRNA knockdown (%) [1]: 22%
TGN-S-S-SEQ ID NO: 1489 (D) ([dC](S‑S‑TGN)[dL][dE][dL][dW][dL][dE][dH][dL][dF][dL][dE][dL][dE]; reading uncertain; also: Cys disulfide-linked to TGN peptide; listed as Homo sapiens) | – | In vivo mRNA knockdown (%) (Table 6, mice, sequential, peptide IV 15 min after siRNA IV, TGN-L-siRNA-III 0.5 mg/kg, peptide 2 mg/kg): 37%; In vivo mRNA knockdown (%) (Table 6, mice, sequential, peptide IV 15 min after siRNA IV, TGN-L-siRNA-III 0.5 mg/kg, peptide 10 mg/kg): 26%; In vivo mRNA knockdown (%) (Table 6, mice, sequential, peptide IV 15 min after siRNA IV, TGN-L-siRNA-III 0.5 mg/kg, peptide 25 mg/kg): 34%
TGN-S-S-SEQ ID NO: 1516 (L) (C(TGN)GLFAEIEELLEEGLENLIDWWNG; reading uncertain; listed as Homo sapiens) | – | In vivo mRNA knockdown (%) [4]: 14%
TGN-S-S-SEQ ID NO: 1631 (D) ([dC](S‑S‑TGN)G[dL][dF]G[dH][dI][dH][dH][dL][dI][dH][dH]G[dL][dH][dN][dL][dI][dD][dW][dW][dN]G; reading uncertain; also: Cys disulfide-linked to TGN peptide; listed as Homo sapiens) | 17 | –
TGN-S-S-SEQ ID NO: 1632 (D) ([dC](S‑S‑TGN)G[dL][dF]G[dE][dI][dH][dH][dL][dI][dH][dH]G[dL][dH][dN][dL][dI][dD][dW][dW][dN]G; reading uncertain; also: Cys disulfide-linked to TGN peptide; listed as Homo sapiens) | 36 | –
TGN-S-S-SEQ ID NO: 1633 (D) ([dC](TGN)G[dL][dF]G[dE][dI][dH][dH][dL][dI][dH][dH]G[dL][dE][dN][dL][dI][dD][dW][dW][dN]G; reading uncertain; also: Cys disulfide-linked to TGN peptide; listed as Homo sapiens) | 55 | –
TGN-S-S-SEQ ID NO: 1634 (D) ([dC](TGN)G[dL][dF]G[dE][dI][dH][dE][dL][dI][dH][dH]G[dL][dE][dN][dL][dI][dD][dW][dW][dN]G; reading uncertain; also: Cys disulfide-linked to TGN peptide; listed as Homo sapiens) | 17 | –
TGN-S-S-SEQ ID NO: 1643 (D) ([dC](TGN)G[dF][dF]G[dE][dI][dA][dE][dL][dI][dE][dE]G[dL][dK][dN][dL][dI][dD][dW]G[dN]G; reading uncertain; also: Cys disulfide-linked to TGN peptide; listed as Homo sapiens) | 41 | –
TGN-S-S-SEQ ID NO: 1651 (D) ([dC](TGN)G[dL][dF][dE][dE][dI][dA][dE][dL][dI][dE][dE]G[dL][dE][dN][dL][dI][dD][dW]G[dN]G; reading uncertain; also: Cys disulfide-linked to TGN peptide; listed as Homo sapiens) | 49 | –
TGN-S-S-SEQ ID NO: 1652 (D) ([dC](TGN)[dE][dL][dF][dE][dE][dL][dA][dE][dL][dL][dW][dE]G[dL][dE][dN][dL][dI][dD][dW]G[dN][dS]; reading uncertain; also: Cys disulfide-linked to TGN peptide; listed as Homo sapiens) | 37 | –
TGN-S-S-SEQ ID NO: 1653 (D) ([dC](TGN)G[dL][dF]G[dE][dI][dA][dE][dL][dI][dW][dE]G[dL][dE][dN][dL][dI][dD][dW]G[dN]G; reading uncertain; also: Cys disulfide-linked to TGN peptide; listed as Homo sapiens) | 63 | In vivo mRNA knockdown (%) (Table 6, mice, sequential, peptide IV 15 min after siRNA IV, TGN-L-siRNA-III 0.25 mg/kg, peptide 50 mg/kg): 69%
TGN-S-S-SEQ ID NO: 1712 (L) (C(TGN)FLGALWKALSELLKNLIDWWNG; reading uncertain; also: Cys disulfide-linked to TGN peptide; listed as Homo sapiens) | – | In vivo mRNA knockdown (%) [3]: 34%
TGN-S-S-SEQ ID NO: 1713 (L): TGN-S-S-peptide, peptide CGL-R6H-GELEEL-S7H-EEGLENLIDWWNG (STAPLED) | 2 | In vivo mRNA knockdown (%) [1]: 0%
TGN-S-S-SEQ ID NO: 1716 (L) (C(TGN)GLFEELAGLLWHGLKNLIDWWNG; reading uncertain; also: Cys disulfide-linked to TGN peptide; listed as Homo sapiens) | – | In vivo mRNA knockdown (%) [3]: 39%
TGN-S-S-SEQ ID NO: 1717(L): TGN-S-S-peptide, peptide CFLGALFHALSHLLENLIDWWNG (C(TGN)FLGALFHALSHLLENLIDWWNG; reading uncertain; also: Cys disulfide-linked to TGN peptide; listed as Homo sapiens) | – | In vivo mRNA knockdown (%) [3]: 16%
TGN-S-S-SEQ ID NO: 1719 (L) (C(TGN)GLFAEIEELIWEGLENLIDWWNQ; reading uncertain; also: Cys disulfide-linked to TGN peptide; listed as Homo sapiens) | – | In vivo mRNA knockdown (%) [4]: 25%
TGN-S-S-SEQ ID NO: 1725 (L) (C(TGN)SSAWWSYWPPVA; reading uncertain; also: Cys disulfide-linked to TGN peptide; listed as Homo sapiens) | 19 | –
TGN-S-S-SEQ ID NO: 1726(D) ([dC](TGN)G[dL][dF][dA][dV][dI][dK][dK][dV][dA][dS][dV][dI]GG[dL]; reading uncertain; also: Cys disulfide-linked to TGN peptide; listed as Homo sapiens) | 23 | –
TGN-S-S-SEQ ID NO: 1727 (D) ([dC](TGN)G[dL][dF][dA][dV][dI][dH][dH][dV][dA][dS][dV][dI]GG[dL]; reading uncertain; also: Cys disulfide-linked to TGN peptide; listed as Homo sapiens) | 26 | –
TGN-S-S-SEQ ID NO: 1728(D) ([dC](TGN)G[dL][dF][dA][dV][dI][dE][dE][dV][dA][dS][dV][dI]GG[dL]; reading uncertain; also: Cys disulfide-linked to TGN peptide; listed as Homo sapiens) | 23 | –
TGN-S-S-SEQ ID NO: 1729 (L) (C(TGN)GPSQPTYPGDDAPVRDLIRFYRDLRRYLNVVTRHRY; reading uncertain; also: Cys disulfide-linked to TGN peptide; listed as Homo sapiens) | 10 | –
TGN-S-S-SEQ ID NO: 1730 (D): TGN-S-S-peptide, peptide CGIGAVLHVLTTGLPALISWIKRKRQQ | 43 | –
